The source of these data is US12465472B2, “Methods of insect control for an animal, products thereof and methods for their preparation” (priority 2023, dated 2025).

The test system of experiment [1] is Hermetia illucens larvae. Kind of experiment: Maggot Inhibitory Assay (MIA) with solutions of insecticide or lidocaine infused into wet chicken feed (Example 3). The format is in vivo. The following applies: for insecticide or repellant activity as demonstrated by weight loss and maggot death: solution or neat liquid mixed into wet chicken feed, 5 larvae per dish, ~30 °C. From the text: Determination of anti-myiasis activity by solutions of insecticide, or a lidocaine solution, was studied by Maggot Inhibitory Assay (MIA).
Seven (7) Test and Control Articles: Wet chicken feed (positive control), Tetrahydrafuran infused feed (THF; carrier control), Isopropyl Myristate infused feed (IPM; permeation enhancer control), Lidocaine solution infused feed (LD), Ivermectin infused feed (Iver), Imidacloprid infused feed (IMI), Spinosad infused feed (Spin).
One (1) test organism: Hermetia illucens larvae, “medium size” 3rd instar feeding (crop-full), mean weight 45-60 mg.
• Contact Time: 7 Days • Contact Temperature: 30±2° C. Test Method Overview: See FIG. 10 for Diagrammatic Overview.
Fresh wet chicken feed (WCF) and Hermetia illucens larvae (3rd instar feeding (crop-full) mean weight 45-60 mg) were obtained within 48 hours of the start of the testing. A small (60 mm diameter) petri dish served as the test container for each replicate. Solutions of the test substances were added onto the fresh WCF, and then the WCF with solution was placed into the center of the container and weighed. The POS control utilized an approximately similar-sized sample of fresh WCF, without any solution being added. Five (5) larvae were placed on each test and control article infused the fresh WCF. The lid was placed on the petri dish and the dish was wrapped in parafilm. The test and control containers were kept in an incubator at ˜30° C. temperature, in the dark. Larvae were observed daily for up to two (2) weeks, noting motility and pupation.
A portion of the solution was retained in a sealed glass vial for possible QA/QC. The WCF sample with solution added was mixed thoroughly and left in a fume hood for up to 72 hours to let THE evaporate off.
Test and control containers had about 2.0 g of test solution infused WCF placed into the center of the wetted filter paper.
Each test and control article were prepared in the individual 60 mm petri dishes in triplicate as described, >48 hours before study start. Five (5) larvae were weighed as a group and recorded for each test and control article. The lid was placed on the petri fish and this was wrapped in parafilm, as described. The test and control containers were kept in the incubator at temperature ˜30° C. in the dark. Larvae are observed daily up to two weeks, noting observations on food consumption, weight and pupation.
The weight of the 5 larvae in each assay replicate were determined and recorded by: (a) removing the lid and weighing the container without the lid (larvae+WCF+container); and (b) taring the scale and gently placing the 5 larvae into the lid and recording the total weight.
The results are shown in FIG. 11 as weight gain per maggot over time. At time 0, 5 maggots were placed into each of 3 pre-weighed petri dishes WCF mixed with the following, as described: nothing (OTS), Tetrahydrofuran (THF), Isopropyl Myristate (IPM), Lidocaine (LD), Ivermectin (Iver), Imidacloprid (IMI), or Spinosad (Spin). At each indicated time point, the weight of maggots was recorded and divided by the number of maggots per dish to calculate the weight per maggot. The weight per maggot at time 0 was then subtracted from that at each time point to calculate the weight gain per maggot. Bars represent the mean±standard deviation of 3 replicate petri dishes. In FIG. 11, statistical significance for each solution, relative to the OTS control, was determined using a repeated measures mixed effects model and each petri dish as the experimental unit (fixed effects were time, solution, and time×solution interaction; random effects were individual petri dishes and residuals); p-values were corrected for multiple comparisons with Dunnett's test. *, p<0.05; **, p<0.01; ***, p<0.001; ****, p<0.0001.

Experiment [2] relates to Hermetia illucens larvae. The experiment is described as follows: Maggot Inhibitory Assay (MIA) with ivermectin and lidocaine bands, unused or previously affixed to Holstein calves (Example 4). The format is in vivo. The following applies: positive control solution (1.31 g in 2.35 g THF) in wet chicken feed. From the text: Evaluation of duration of efficacy of anti-myiasis activity by elastomeric bands loaded/infused with insecticide, with or without an active agent for the topical treatment of pain, was studied via ex vivo tissue and band collection and using Maggot Inhibitory Assay (MIA).
Experimental goal: The aim of this experiment was to assess the long-term function of elastomeric bands infused with insecticide, with or without lidocaine, to inhibit the growth of larvae using the novel MIA test disclosed herein, by evaluating the function of ex vivo tissue biopsies taken from scrotal tissue and drug-infused elastomeric bands which were previously placed on Holstein calves for various time periods (3, 7, 14, 21 and 30 days). The protocol used and presented here is based on published literature (Kotze et al., (2022) “Resistance to dicyclanil and imidacloprid in the sheep blowfly, Lucilia cuprina, in Australia”, Pest Manag Sci, 78:4195-4206).
Ivermectin control: A solution of ivermectin was prepared as a positive control (1.31 g ivermectin into 2.35 g of THF). (n=3)
Exposed ILLB: Elastomeric bands infused with ivermectin and lidocaine that were affixed to scrotal sites and removed at each time point. (n=3×5 experiments=15) […]
Animals were randomly allocated to the study. […] Animal IDs and treatment codes were recorded. […] Animals were monitored for any adverse effects. […]

Consider `C1CCOC1` [Tetrahydrofuran], for which, in the experiment with Hermetia illucens larvae [1], the “insecticide or repellant activity as demonstrated by weight loss and maggot death” value is “no insecticide or repellant activity”.

Turning to `O=[N+]([O-])NC1=NCCN1Cc1ccc(Cl)nc1` [imidacloprid], the “insecticide or repellant activity as demonstrated by weight loss and maggot death” value in the experiment on Hermetia illucens larvae [1] is on record as “effective insecticide or repellant activity”.

Take `CCCCCCCCCCCCCC(=O)OC(C)C` [isopropyl myristate]: the “insecticide or repellant activity as demonstrated by weight loss and maggot death” value with Hermetia illucens larvae [1] is reported as “no insecticide or repellant activity”.

Regarding `CCN(CC)CC(=O)Nc1c(C)cccc1C` [lidocaine solution, lidocaine], the “activity as an insecticide compared with commercial insecticides (ivermectin, imidacloprid, spinosad)” value in the experiment with Hermetia illucens larvae [1] (lidocaine in solution and infused into an elastomeric band) is “equivalent to commercial insecticides”. Moreover, the “insecticide or repellant activity as demonstrated by weight loss and maggot death” value in the experiment on Hermetia illucens larvae [1] is recorded as “effective insecticide or repellant activity”.

As to ivermectin, the maggot weight change entry in the experiment with Hermetia illucens larvae [2] is recorded as “a decline or no weight gain”. For the same molecule, the “insecticide or repellant activity as demonstrated by weight loss and maggot death” value in the experiment on Hermetia illucens larvae [1] is listed as “effective insecticide or repellant activity”.

On to spinosad, for which the “insecticide or repellant activity as demonstrated by weight loss and maggot death” value in the experiment on Hermetia illucens larvae [1] was “effective insecticide or repellant activity”.
